Experimental data reported in ChEMBL document CHEMBL1153197, “Synthetic studies and pharmacological evaluations on the MDMA ('Ecstasy') antagonist nantenine” (Bioorg Med Chem Lett, 2010).
Activity calls are given as the source filed them. The rule behind the calls is not given here.

Columns and labels:
D(2) dopamine receptor = D(2) dopamine receptor (Homo sapiens, UniProt P14416); assay: Displacement of [3H]N-methylspiperone from human dopamine D2 receptor
Histamine H4 receptor = Histamine H4 receptor (Homo sapiens, UniProt Q9H3N8); assay: Displacement of [3H]Histamine from human histamine H4 receptor
[1] = target: 5-hydroxytryptamine receptor 6 (Homo sapiens, UniProt P50406); assay: Displacement of [3H]LSD from human 5HT6 receptor
[2] = target: Sodium-dependent dopamine transporter (Homo sapiens, UniProt Q01959); assay: Displacement of [3H]WIN-35428 from human DAT
[3] = target: 5-hydroxytryptamine receptor 1E (Homo sapiens, UniProt P28566); assay: Displacement of [3H]5-HT from human 5HT1E receptor
5-hydroxytryptamine receptor 1E, sequence (P28566 whole entry): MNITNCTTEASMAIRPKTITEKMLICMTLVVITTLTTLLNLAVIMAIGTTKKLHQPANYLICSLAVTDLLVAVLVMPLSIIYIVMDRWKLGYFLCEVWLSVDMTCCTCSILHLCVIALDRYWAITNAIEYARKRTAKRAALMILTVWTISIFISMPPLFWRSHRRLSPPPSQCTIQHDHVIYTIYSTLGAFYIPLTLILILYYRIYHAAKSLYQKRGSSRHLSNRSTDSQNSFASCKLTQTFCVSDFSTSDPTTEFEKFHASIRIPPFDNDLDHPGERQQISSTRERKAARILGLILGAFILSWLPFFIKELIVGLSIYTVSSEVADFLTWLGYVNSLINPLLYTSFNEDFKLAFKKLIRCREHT

[4] = target: Alpha-2B adrenergic receptor (Homo sapiens, UniProt P18089); assay: Displacement of [3H]Clonidine from human adrenergic alpha2B receptor
[5] = target: 5-hydroxytryptamine receptor 2C (Homo sapiens, UniProt P28335); assay: Displacement of [3H]Mesulergine from human 5HT2C receptor
[6] = target: Delta-type opioid receptor (Homo sapiens, UniProt P41143); assay: Displacement of [3H]DADLE from human DOR
[7] = target: Sodium-dependent serotonin transporter (Homo sapiens, UniProt P31645); assay: Displacement of [3H]Citalopram from human SERT
Histamine H1 receptor = Histamine H1 receptor (Homo sapiens, UniProt P35367); assay: Displacement of [3H]Pyrilamine from human histamine H1 receptor
Histamine H1 receptor, sequence (P35367 whole entry): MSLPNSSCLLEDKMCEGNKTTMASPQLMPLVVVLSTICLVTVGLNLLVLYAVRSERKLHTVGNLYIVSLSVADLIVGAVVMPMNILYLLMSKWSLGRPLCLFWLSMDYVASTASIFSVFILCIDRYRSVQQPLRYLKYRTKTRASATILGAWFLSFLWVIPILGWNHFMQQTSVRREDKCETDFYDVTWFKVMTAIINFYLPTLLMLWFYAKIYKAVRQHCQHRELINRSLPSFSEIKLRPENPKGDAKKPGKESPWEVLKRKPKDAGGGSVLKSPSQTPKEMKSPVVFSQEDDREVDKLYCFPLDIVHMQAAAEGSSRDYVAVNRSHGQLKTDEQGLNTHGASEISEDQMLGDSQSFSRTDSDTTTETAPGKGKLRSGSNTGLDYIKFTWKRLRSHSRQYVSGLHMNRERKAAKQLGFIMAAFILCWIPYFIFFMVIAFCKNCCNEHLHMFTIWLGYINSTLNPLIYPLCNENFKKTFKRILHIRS

[8] = target: Muscarinic acetylcholine receptor M2 (Homo sapiens, UniProt P08172); assay: Displacement of [3H]QNB from human muscarinic M2 receptor
Muscarinic acetylcholine receptor M2, sequence (P08172 whole entry): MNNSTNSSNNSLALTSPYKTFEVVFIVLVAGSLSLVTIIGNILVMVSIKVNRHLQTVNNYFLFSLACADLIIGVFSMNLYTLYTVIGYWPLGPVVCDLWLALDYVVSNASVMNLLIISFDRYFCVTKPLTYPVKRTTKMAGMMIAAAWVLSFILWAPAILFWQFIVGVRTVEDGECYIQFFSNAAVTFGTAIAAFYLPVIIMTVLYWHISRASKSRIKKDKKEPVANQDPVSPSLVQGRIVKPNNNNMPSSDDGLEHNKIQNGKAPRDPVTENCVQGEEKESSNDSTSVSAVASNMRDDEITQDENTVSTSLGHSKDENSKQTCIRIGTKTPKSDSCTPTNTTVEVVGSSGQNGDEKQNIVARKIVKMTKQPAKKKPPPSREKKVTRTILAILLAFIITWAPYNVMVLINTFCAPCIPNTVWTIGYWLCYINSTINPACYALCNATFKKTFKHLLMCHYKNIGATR

D(4) dopamine receptor = D(4) dopamine receptor (Homo sapiens, UniProt P21917); assay: Displacement of [3H]N-methylspiperone from human dopamine D4 receptor
D(4) dopamine receptor, sequence (P21917 whole entry): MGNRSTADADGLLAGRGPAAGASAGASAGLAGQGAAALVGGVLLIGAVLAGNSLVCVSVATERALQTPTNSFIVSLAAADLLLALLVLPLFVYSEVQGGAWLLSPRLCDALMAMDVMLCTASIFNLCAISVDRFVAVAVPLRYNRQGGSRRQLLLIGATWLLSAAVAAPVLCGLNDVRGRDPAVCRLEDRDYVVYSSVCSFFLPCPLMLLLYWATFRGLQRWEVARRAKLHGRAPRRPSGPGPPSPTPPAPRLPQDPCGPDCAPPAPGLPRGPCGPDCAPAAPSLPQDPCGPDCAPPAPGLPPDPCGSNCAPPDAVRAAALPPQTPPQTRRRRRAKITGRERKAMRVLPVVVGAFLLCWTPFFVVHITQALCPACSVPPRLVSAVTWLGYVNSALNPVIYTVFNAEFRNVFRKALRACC

[9] = target: 5-hydroxytryptamine receptor 2B (Homo sapiens, UniProt P41595); assay: Displacement of [3H]LSD from human 5HT2B receptor
5-hydroxytryptamine receptor 2B, sequence (P41595 whole entry): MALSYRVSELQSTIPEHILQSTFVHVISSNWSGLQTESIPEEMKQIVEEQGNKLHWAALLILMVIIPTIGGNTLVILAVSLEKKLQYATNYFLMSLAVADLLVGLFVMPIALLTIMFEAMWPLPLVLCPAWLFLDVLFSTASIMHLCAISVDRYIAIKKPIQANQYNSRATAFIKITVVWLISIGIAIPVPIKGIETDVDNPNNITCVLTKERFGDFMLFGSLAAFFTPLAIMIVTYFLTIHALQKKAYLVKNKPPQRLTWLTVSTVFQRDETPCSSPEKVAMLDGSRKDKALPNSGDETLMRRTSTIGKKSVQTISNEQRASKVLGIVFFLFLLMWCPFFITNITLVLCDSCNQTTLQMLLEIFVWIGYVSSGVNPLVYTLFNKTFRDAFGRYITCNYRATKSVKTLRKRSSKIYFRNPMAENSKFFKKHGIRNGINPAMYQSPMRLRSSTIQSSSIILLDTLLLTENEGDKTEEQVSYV

[10] = target: Muscarinic acetylcholine receptor M1 (Homo sapiens, UniProt P11229); assay: Displacement of [3H]QNB from human muscarinic M1 receptor
[11] = target: 5-hydroxytryptamine receptor 5A (Homo sapiens, UniProt P47898); assay: Displacement of [3H]LSD from human 5HT5A receptor
[12] = target: Beta-3 adrenergic receptor (Homo sapiens, UniProt P13945); assay: Displacement of [125I]Iodopindolol from human adrenergic beta3 receptor
Mu-type opioid receptor = Mu-type opioid receptor (Homo sapiens, UniProt P35372); assay: Displacement of [3H]DAMGO from human MOR
[13] = target: Sodium-dependent noradrenaline transporter (Homo sapiens, UniProt P23975); assay: Displacement of [3H]Nisoxetine from human NET
Sodium-dependent noradrenaline transporter, sequence (P23975 whole entry): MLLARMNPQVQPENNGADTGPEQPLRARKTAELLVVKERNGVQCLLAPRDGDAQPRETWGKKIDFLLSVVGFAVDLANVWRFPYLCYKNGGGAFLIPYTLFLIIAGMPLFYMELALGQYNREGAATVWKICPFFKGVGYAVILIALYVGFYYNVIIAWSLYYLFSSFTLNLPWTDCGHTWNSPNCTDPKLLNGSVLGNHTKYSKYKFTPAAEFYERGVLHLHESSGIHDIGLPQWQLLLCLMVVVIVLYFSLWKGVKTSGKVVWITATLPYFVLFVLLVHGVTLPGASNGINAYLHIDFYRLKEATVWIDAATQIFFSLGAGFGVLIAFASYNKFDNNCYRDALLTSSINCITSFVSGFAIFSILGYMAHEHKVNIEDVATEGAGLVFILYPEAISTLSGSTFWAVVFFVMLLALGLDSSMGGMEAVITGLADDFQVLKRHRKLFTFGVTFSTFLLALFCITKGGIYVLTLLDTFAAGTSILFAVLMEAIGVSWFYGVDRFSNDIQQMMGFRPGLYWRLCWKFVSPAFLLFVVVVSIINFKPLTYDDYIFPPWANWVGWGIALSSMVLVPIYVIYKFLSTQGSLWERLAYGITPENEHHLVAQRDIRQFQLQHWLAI

D(1B) dopamine receptor = D(1B) dopamine receptor (Homo sapiens, UniProt P21918); assay: Displacement of [3H]SCH233930 from human dopamine D5 receptor
[14] = target: 5-hydroxytryptamine receptor 3A (Homo sapiens, UniProt P46098); assay: Displacement of [3H]LY278584 from human 5HT3 receptor
5-hydroxytryptamine receptor 3A, sequence (P46098 whole entry): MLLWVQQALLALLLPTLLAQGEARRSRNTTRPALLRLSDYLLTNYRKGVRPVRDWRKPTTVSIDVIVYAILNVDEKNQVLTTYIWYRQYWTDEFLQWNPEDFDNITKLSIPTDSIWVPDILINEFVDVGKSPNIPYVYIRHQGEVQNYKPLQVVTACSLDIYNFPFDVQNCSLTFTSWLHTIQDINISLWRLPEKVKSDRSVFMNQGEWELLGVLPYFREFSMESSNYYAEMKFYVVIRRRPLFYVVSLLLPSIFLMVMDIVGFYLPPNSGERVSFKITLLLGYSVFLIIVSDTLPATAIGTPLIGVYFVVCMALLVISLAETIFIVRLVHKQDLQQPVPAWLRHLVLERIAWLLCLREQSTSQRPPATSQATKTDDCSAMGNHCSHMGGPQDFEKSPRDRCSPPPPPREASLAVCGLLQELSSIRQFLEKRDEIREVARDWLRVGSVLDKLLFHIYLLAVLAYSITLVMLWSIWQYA

[15] = target: Alpha-1A adrenergic receptor (Homo sapiens, UniProt P35348); assay: Displacement of [3H]Prazosin from human adrenergic alpha1A receptor
[16] = target: Alpha-1B adrenergic receptor (Homo sapiens, UniProt P35368); assay: Displacement of [3H]Prazosin from human adrenergic Alpha-1B receptor
Histamine H2 receptor = Histamine H2 receptor (Homo sapiens, UniProt P25021); assay: Displacement of [3H]Tiotidine from human histamine H2 receptor
[17] = target: Alpha-1D adrenergic receptor (Homo sapiens, UniProt P25100); assay: Binding affinity to human adrenergic Alpha-1D receptor
[18] = target: 5-hydroxytryptamine receptor 1D (Homo sapiens, UniProt P28221); assay: Displacement of [3H]GR127543 from human 5HT1D receptor
[19] = target: 5-hydroxytryptamine receptor 7 (Homo sapiens, UniProt P34969); assay: Displacement of [3H]LSD from human 5HT7 receptor
[20] = target: 5-hydroxytryptamine receptor 1B (Homo sapiens, UniProt P28222); assay: Displacement of [3H]GR127543 from human 5HT1B receptor
5-hydroxytryptamine receptor 1B, sequence (P28222 whole entry): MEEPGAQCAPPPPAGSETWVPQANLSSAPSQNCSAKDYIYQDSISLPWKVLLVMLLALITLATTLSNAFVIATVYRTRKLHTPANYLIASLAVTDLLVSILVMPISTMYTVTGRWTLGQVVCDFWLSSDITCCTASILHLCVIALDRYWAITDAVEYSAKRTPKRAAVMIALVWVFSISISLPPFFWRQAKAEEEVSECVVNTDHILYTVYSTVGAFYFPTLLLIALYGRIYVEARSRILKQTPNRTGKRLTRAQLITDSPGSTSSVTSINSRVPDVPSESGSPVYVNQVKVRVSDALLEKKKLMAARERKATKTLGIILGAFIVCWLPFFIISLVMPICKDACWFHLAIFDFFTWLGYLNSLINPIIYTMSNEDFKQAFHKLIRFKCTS

[21] = target: Beta-1 adrenergic receptor (Homo sapiens, UniProt P08588); assay: Displacement of [125I]Iodopindolol from human adrenergic beta-1 receptor
Beta-1 adrenergic receptor, sequence (P08588 whole entry): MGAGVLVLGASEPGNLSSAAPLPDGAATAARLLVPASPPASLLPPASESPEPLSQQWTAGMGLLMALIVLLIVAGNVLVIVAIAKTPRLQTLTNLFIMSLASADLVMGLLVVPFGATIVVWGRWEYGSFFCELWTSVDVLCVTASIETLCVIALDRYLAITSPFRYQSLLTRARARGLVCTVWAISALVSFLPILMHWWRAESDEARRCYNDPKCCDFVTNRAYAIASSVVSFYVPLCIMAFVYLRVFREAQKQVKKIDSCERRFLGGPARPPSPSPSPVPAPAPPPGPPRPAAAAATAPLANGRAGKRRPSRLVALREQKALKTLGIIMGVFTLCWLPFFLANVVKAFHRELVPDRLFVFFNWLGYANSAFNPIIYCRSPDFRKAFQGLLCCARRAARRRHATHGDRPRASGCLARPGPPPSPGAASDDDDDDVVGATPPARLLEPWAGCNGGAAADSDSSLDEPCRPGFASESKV

D(3) dopamine receptor = D(3) dopamine receptor (Homo sapiens, UniProt P35462); assay: Displacement of [3H]N-methylspiperone from human dopamine D3 receptor
[22] = target: Muscarinic acetylcholine receptor M4 (Homo sapiens, UniProt P08173); assay: Displacement of [3H]QNB from human muscarinic M4 receptor
[23] = target: 5-hydroxytryptamine receptor 2A (Homo sapiens, UniProt P28223); assay: Displacement of [3H]Ketanserin from human 5HT2A receptor
[24] = target: Muscarinic acetylcholine receptor M3 (Homo sapiens, UniProt P20309); assay: Displacement of [3H]QNB from human muscarinic M3 receptor
[25] = target: Alpha-2C adrenergic receptor (Homo sapiens, UniProt P18825); assay: Displacement of [3H]Clonidine from human adrenergic Alpha-2C receptor
[26] = target: Alpha-2A adrenergic receptor (Homo sapiens, UniProt P08913); assay: Displacement of [3H]Clonidine from human adrenergic alpha2A receptor
Alpha-2A adrenergic receptor, sequence (P08913 whole entry): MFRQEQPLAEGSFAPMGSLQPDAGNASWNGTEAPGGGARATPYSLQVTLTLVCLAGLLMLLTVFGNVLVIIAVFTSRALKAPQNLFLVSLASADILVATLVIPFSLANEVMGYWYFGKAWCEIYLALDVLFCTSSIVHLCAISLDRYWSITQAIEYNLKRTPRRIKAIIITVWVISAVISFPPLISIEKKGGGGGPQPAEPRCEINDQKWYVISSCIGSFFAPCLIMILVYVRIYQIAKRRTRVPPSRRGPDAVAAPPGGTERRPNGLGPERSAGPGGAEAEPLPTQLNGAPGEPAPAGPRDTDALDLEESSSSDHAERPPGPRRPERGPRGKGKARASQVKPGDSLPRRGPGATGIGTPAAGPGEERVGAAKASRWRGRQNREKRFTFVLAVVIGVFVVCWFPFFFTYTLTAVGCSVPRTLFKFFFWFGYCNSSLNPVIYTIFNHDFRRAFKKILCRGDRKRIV

[27] = target: Kappa-type opioid receptor (Homo sapiens, UniProt P41145); assay: Displacement of [3H]U69593 from human KOR
Histamine H3 receptor = Histamine H3 receptor (Homo sapiens, UniProt Q9Y5N1); assay: Displacement of [3H]alpha-methylhistamine from human histamine H3 receptor
D(1A) dopamine receptor = D(1A) dopamine receptor (Homo sapiens, UniProt P21728); assay: Displacement of [3H]SCH233930 from human dopamine D1 receptor
[28] = target: Beta-2 adrenergic receptor (Homo sapiens, UniProt P07550); assay: Displacement of [125I]Iodopindolol from human adrenergic beta2 receptor
[29] = Displacement of [3H]DTG from human sigma 2 receptor
Rattus norvegicus [30] = assay: Inhibition of MDMA-induced behavioral suppression in rat assessed as earning of 20 food pellets at 0.1 mg/kg, ip administered 15 mins before MDMA challenge by food-reinforced operant task method; type: functional, organism-based; design: dose 0.1 mg/kg
Rattus norvegicus [31] = assay: Toxicity in rat at 1 mg/kg, ip after 15 mins; type: organism-based; design: dose 1 mg/kg, route intraperitoneal; conditions: in vivo, 0.25 h
Rattus norvegicus [32] = assay: Inhibition of MDMA-induced behavioral suppression in rat assessed as earning of 20 food pellets at 0.3 mg/kg, ip administered 15 mins before MDMA challenge by food-reinforced operant task method; type: functional, organism-based; design: dose 0.3 mg/kg

Q: Which Ki (D(2) dopamine receptor) does the source give for `COc1cc2c3c(c1OC)-c1cc4c(cc1CC3N(C)CC2)OCO4` (racemic) [NANTENINE] here?
A: 858 nM

Q: What about the Ki (Histamine H4 receptor) of the same compound?
A: > 10000 nM

Q: And the Ki [1]?
A: 257 nM

Q: What about the Ki [2] of the same compound?
A: > 10000 nM

Q: What about the Ki [3] of the same compound?
A: > 10000 nM

Q: And the Ki [4]?
A: 252 nM

Q: What about the Ki [5] of the same compound?
A: 1070 nM

Q: And the Ki [6]?
A: > 10000 nM

Q: What about the Ki [7] of the same compound?
A: 244 nM

Q: And the Ki (Histamine H1 receptor)?
A: > 10000 nM

Q: What about the Ki [8] of the same compound?
A: > 10000 nM

Q: And the Ki (D(4) dopamine receptor)?
A: 262 nM

Q: And the Ki [9]?
A: 543 nM

Q: What about the Ki [10] of the same compound?
A: > 10000 nM

Q: And the Ki [11]?
A: 2220 nM

Q: And the Ki [12]?
A: > 10000 nM

Q: And the Ki (Mu-type opioid receptor)?
A: 7260 nM

Q: And the Ki [13]?
A: > 10000 nM

Q: What about the Ki (D(1B) dopamine receptor) of the same compound?
A: 2400 nM

Q: And the Ki [14]?
A: > 10000 nM

Q: And the Ki [15]?
A: 2 nM

Q: What about the Ki [16] of the same compound?
A: 1190 nM

Q: What about the Ki (Histamine H2 receptor) of the same compound?
A: 672 nM

Q: What about the Ki [17] of the same compound?
A: 340 nM

Q: What about the Ki [18] of the same compound?
A: 49 nM

Q: And the Ki [19]?
A: 67 nM

Q: What about the Ki [20] of the same compound?
A: 100 nM

Q: What about the Ki [21] of the same compound?
A: 8570 nM

Q: What about the Ki (D(3) dopamine receptor) of the same compound?
A: 309 nM

Q: And the Ki [22]?
A: > 10000 nM

Q: And the Ki [23]?
A: 832 nM

Q: What about the Ki [24] of the same compound?
A: > 10000 nM

Q: What about the Ki [25] of the same compound?
A: 181 nM

Q: And the Ki [26]?
A: 1290 nM

Q: What about the Ki [27] of the same compound?
A: > 10000 nM

Q: And the Ki (Histamine H3 receptor)?
A: > 10000 nM

Q: And the Ki (D(1A) dopamine receptor)?
A: 895 nM

Q: And the Ki [28]?
A: > 10000 nM

Q: What about the Ki [29] of the same compound?
A: > 10000 nM

Q: With `O=C(c1ccc(F)cc1)C1CCN(CCn2c(=O)[nH]c3ccccc3c2=O)CC1` [KETANSERIN] as the compound, how does the Activity (Rattus norvegicus [30]) read?
A: Active

Q: And the Activity (Rattus norvegicus [31])?
A: Toxic

Q: What about the Activity (Rattus norvegicus [32]) of the same compound?
A: Active
